Measured values from ChEMBL document CHEMBL1136686 (Bioorg Med Chem Lett, 2003).

What follows are compounds tested against T1, Progesterone receptor (Rattus norvegicus) (UniProt Q63449) (assay: Effective dose on subcutaneous administration in ovariectomized female rat decidualization model).
T1 sequence (whole entry): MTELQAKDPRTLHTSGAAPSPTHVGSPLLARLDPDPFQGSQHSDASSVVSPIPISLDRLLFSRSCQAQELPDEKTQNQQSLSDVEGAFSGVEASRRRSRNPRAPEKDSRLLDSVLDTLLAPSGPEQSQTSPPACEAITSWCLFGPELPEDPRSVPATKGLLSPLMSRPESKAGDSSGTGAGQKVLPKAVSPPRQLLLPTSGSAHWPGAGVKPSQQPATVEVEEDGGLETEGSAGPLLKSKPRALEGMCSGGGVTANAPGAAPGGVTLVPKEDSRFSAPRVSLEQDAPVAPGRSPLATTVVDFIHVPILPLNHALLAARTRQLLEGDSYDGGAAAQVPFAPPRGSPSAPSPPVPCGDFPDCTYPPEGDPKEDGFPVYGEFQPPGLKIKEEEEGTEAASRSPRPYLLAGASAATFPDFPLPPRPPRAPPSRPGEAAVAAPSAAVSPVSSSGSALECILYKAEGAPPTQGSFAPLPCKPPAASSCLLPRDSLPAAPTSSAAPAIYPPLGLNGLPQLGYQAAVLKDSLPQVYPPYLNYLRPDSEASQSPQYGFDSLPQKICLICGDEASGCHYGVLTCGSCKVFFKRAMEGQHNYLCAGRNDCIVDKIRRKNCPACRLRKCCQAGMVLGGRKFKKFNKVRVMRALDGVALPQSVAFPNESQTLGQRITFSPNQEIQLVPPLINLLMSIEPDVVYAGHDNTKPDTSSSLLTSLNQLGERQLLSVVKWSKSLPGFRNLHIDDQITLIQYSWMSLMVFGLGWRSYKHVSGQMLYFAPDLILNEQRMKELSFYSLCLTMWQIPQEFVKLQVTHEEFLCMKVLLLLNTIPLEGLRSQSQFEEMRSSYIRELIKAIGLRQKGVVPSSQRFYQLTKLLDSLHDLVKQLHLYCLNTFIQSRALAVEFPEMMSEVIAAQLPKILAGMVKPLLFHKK
Assay type: functional, organism-based
An ED50 of 0.22 mg/kg was found for `CC1(C)OC(S)=Nc2ccc(-c3csc(C#N)c3)cc21` in this work.

The compounds below were run against T2, Progesterone receptor (Homo sapiens, UniProt P06401) (assay: Effective concentration on alkaline phosphatase activity in human T47D breast carcinoma cell line.).
T2 sequence (P06401 whole entry): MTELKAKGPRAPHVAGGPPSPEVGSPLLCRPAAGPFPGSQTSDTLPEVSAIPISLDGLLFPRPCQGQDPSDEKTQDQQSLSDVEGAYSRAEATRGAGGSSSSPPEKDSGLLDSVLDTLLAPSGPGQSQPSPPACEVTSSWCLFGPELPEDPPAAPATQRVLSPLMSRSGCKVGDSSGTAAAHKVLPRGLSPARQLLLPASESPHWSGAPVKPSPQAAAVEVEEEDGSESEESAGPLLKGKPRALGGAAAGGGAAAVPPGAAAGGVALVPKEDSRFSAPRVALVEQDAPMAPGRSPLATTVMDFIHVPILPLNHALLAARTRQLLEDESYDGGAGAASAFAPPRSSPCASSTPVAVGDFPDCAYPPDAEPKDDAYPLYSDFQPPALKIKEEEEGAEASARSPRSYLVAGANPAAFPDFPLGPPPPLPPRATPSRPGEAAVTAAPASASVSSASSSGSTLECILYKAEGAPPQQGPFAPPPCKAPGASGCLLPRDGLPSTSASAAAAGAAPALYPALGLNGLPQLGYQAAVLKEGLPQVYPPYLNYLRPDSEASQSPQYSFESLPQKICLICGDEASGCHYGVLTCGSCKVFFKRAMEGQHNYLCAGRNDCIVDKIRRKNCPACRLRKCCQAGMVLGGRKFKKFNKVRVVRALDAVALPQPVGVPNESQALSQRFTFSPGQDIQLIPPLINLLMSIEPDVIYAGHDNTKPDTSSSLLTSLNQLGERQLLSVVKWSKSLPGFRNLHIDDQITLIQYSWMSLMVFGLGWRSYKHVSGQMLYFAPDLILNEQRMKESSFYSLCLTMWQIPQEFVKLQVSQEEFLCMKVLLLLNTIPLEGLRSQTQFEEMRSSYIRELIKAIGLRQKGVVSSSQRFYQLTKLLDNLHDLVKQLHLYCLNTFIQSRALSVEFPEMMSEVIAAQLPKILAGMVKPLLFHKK
Assay type: functional, cell-based
An EC50 of 1.5 nM was found for `CC1(C)OC(=S)Nc2ccc(-c3cccc(F)c3F)cc21` in this work. An EC50 of 1.7 nM was found for `CC1(C)OC(=S)Nc2ccc(-c3cc(F)cc(Br)c3)cc21` in this work. An EC50 of 79.5 nM was found for `CC1(C)OC(=S)Nc2ccc(-c3ccc(F)c(Cl)c3)cc21` in this work. An EC50 of 5.7 nM was found for `CC1(c2ccccc2)OC(=S)Nc2ccc(-c3cccc(Cl)c3)cc21` (configuration not stated) in this work. An EC50 of 42 nM was found for `CC1(C)OC(S)=Nc2ccc(-c3cc(C#N)cc(C#N)c3)cc21` in this work. An EC50 of 49.8 nM was found for `CC1(C)OC(=S)Nc2ccc(-c3ccccc3Cl)cc21` in this work. An EC50 of 1000 nM was found for `CC1(C)OC(S)=Nc2c(Br)cc(-c3ccc(Cl)c(F)c3)cc21` in this work. An EC50 of over 10000 nM was found for `CC1(C)OC(S)=Nc2c(Br)cc(-c3ccc(C#N)c(F)c3)cc21` in this work. An EC50 of 2.5 nM was found for `N#Cc1cccc(-c2ccc3c(c2)C2(CCCCC2)OC(=S)N3)c1` in this work. An EC50 of over 10000 nM was found for `COc1cc(C#N)cc(-c2ccc3c(c2)C(C)(C)OC(=S)N3)c1` in this work. An EC50 of over 10000 nM was found for `CC1(C)OC(S)=Nc2ccc(-c3cc(C#N)cc(OC(F)(F)F)c3)cc21` in this work. An EC50 of 44.9 nM was found for `CC1(C)OC(=S)Nc2ccc(-c3cc(Cl)cc(C#N)c3)cc21` in this work. An EC50 of 11.4 nM was found for `CC1(C)OC(=S)Nc2ccc(-c3ccc(F)c(F)c3)cc21` in this work. An EC50 of 1.2 nM was found for `CC1(C)OC(=S)Nc2ccc(-c3coc(C#N)c3)cc21` in this work. An EC50 of over 10000 nM was found for `CN1C(=S)OC(C)(C)c2cc(-c3cc(F)cc(Br)c3)ccc21` in this work. An EC50 of 0.9 nM was found for `CC1(C)OC(S)=Nc2ccc(-c3cc(F)cc(Cl)c3)cc21` in this work. An EC50 of over 10000 nM was found for `CCN1C(=S)OC(C)(C)c2cc(-c3cc(F)cc(C#N)c3)ccc21` in this work. An EC50 of 300 nM was found for `CC1OC(=S)Nc2ccc(-c3cccc(F)c3)cc21` (configuration not stated) in this work. An EC50 of 11.6 nM was found for `CC1(C)OC(=S)Nc2ccc(-c3ccccc3F)cc21` in this work. An EC50 of 1.5 nM was found for `CC1(C)OC(=S)Nc2ccc(-c3cc(F)cc(F)c3)cc21` in this work. An EC50 of 1.7 nM was found for `CC1(C)OC(=S)Nc2ccc(-c3cccc(Cl)c3)cc21` in this work. An EC50 of 2.5 nM was found for `CC1(C)OC(=S)Nc2ccc(-c3cc(F)cc(C(F)(F)F)c3)cc21` in this work. An EC50 of 80.1 nM was found for `CC1(C)OC(=S)Nc2c(Br)cc(-c3cc(F)cc(C#N)c3)cc21` in this work. An EC50 of over 10000 nM was found for `CC1(C)OC(=S)Nc2ccc(-c3cc(Br)cc(OC(F)(F)F)c3)cc21` in this work. An EC50 of 1.1 nM was found for `CC1(C)OC(=S)Nc2ccc(-c3cccc([N+](=O)[O-])c3)cc21` in this work. An EC50 of 0.4 nM was found for `CC1(C)OC(=S)Nc2ccc(-c3cccc(C#N)c3)cc21` in this work. An EC50 of 200 nM was found for `Cc1cc(C#N)cc(-c2ccc3c(c2)C(C)(C)OC(=S)N3)c1` in this work. An EC50 of 1 nM was found for `CC1(C)OC(=S)Nc2ccc(-c3cccc(F)c3)cc21` in this work. An EC50 of 88.5 nM was found for `CC1(Cc2ccccc2)OC(=S)Nc2ccc(-c3cccc(Cl)c3)cc21` (configuration not stated) in this work. An EC50 of over 10000 nM was found for `CN1C(=S)OC(C)(C)c2cc(-c3cccc(Br)c3)ccc21` in this work. An EC50 of 2.5 nM was found for `CC1(C)OC(=S)Nc2ccc(-c3cccc(Br)c3)cc21` in this work. An EC50 of 1000 nM was found for `SC1=Nc2ccc(-c3cccc(Cl)c3)cc2C(Cc2ccccc2)(Cc2ccccc2)O1` in this work. An EC50 of 0.7 nM was found for `CC1(C)OC(=S)Nc2ccc(-c3ccc(C#N)s3)cc21` in this work. An EC50 of 5.7 nM was found for `CC1(C)OC(=S)Nc2ccc(-c3cncc(Br)c3)cc21` in this work. An EC50 of 7.2 nM was found for `COc1cccc(-c2ccc3c(c2)C(C)(C)OC(=S)N3)c1` in this work. An EC50 of over 10000 nM was found for `CC1(C)OC(S)=Nc2ccc(-c3cc(Br)cc(C#N)c3)cc21` in this work. An EC50 of 2.6 nM was found for `COc1cc(F)cc(-c2ccc3c(c2)C(C)(C)OC(=S)N3)c1` in this work. An EC50 of 4.7 nM was found for `CCC1(CC)OC(=S)Nc2ccc(-c3cccc([N+](=O)[O-])c3)cc21` in this work. An EC50 of 7.2 nM was found for `CCC1(CC)OC(=S)Nc2ccc(-c3cccc(Cl)c3)cc21` in this work. An EC50 of 26.5 nM was found for `CC1(C)OC(=S)Nc2ccc(-c3cc(Cl)cc(Cl)c3)cc21` in this work. An EC50 of 1000 nM was found for `CC1(C)OC(=S)Nc2c(F)cc(-c3cc(F)cc(C#N)c3)cc21` in this work. An EC50 of 0.3 nM was found for `C=CCC1(C)OC(=S)Nc2ccc(-c3cccc(Cl)c3)cc21` (configuration not stated) in this work. An EC50 of over 10000 nM was found for `Cc1cc(Br)cc(-c2ccc3c(c2)C(C)(C)OC(=S)N3)c1` in this work. An EC50 of 0.6 nM was found for `CC1(C)OC(=S)Nc2ccc(-c3cc(F)cc(C#N)c3)cc21` in this work. An EC50 of 1.25 nM was found for `CC1(C)OC(=S)Nc2ccc(-c3ccc(C#N)o3)cc21` in this work.

Each compound was assayed against T2, Progesterone receptor (assay: Inhibition of [3H]P4 to progesterone receptor (PR) of human T47D breast carcinoma cells).
Assay type: cell-based
An IC50 of 100 nM was found for `CN1C(=S)OC(C)(C)c2cc(-c3cc(F)cc(Br)c3)ccc21` in this work. An IC50 of 100 nM was found for `CCN1C(=S)OC(C)(C)c2cc(-c3cc(F)cc(C#N)c3)ccc21` in this work. An IC50 of 114 nM was found for `CN1C(=S)OC(C)(C)c2cc(-c3cccc(Br)c3)ccc21` in this work.

What follows are compounds tested against T1, Progesterone receptor (Rattus norvegicus) (assay: Effective dose on oral administration in ovariectomized female rat decidualization model).
Assay type: functional, organism-based
An ED50 of 0.62 mg/kg was found for `CC1(C)OC(S)=Nc2ccc(-c3csc(C#N)c3)cc21` in this work. An ED50 of 0.1 mg/kg was found for `CC1(C)OC(S)=Nc2ccc(-c3cc(F)cc(C#N)c3)cc21` in this work. An ED50 of 1.5 mg/kg was found for `CC1(C)OC(S)=Nc2ccc(-c3ccc(C#N)s3)cc21` in this work.

These compounds were tested against T2, Progesterone receptor (assay: Inhibition of [3H]P4 binding at progesterone receptor of human T47D breast carcinoma cells).
Assay type: cell-based
An IC50 of 100 nM was found for `COc1cc(C#N)cc(-c2ccc3c(c2)C(C)(C)OC(=S)N3)c1` in this work. An IC50 of 100 nM was found for `CC1(C)OC(S)=Nc2ccc(-c3cc(C#N)cc(OC(F)(F)F)c3)cc21` in this work. An IC50 of 100 nM was found for `CC1(C)OC(=S)Nc2ccc(-c3cc(Br)cc(OC(F)(F)F)c3)cc21` in this work. An IC50 of 100 nM was found for `CC1(C)OC(S)=Nc2ccc(-c3cc(Br)cc(C#N)c3)cc21` in this work. An IC50 of 100 nM was found for `Cc1cc(Br)cc(-c2ccc3c(c2)C(C)(C)OC(=S)N3)c1` in this work.
